Reference: PubChem BioAssay (NCI)
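How tested: cells in 96-well plates exposed to compound for 48 hours at five concentrations. GI50 = concentration required for 50% inhibition of growth. TGI marks complete inhibition of growth.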

Columns and labels:
Test in all cases: growth of human tumour cells (NCI), 48 h
[1] = test system: NCI-H23 lung
[2] = test system: MDA-MB-435
[3] = test system: RXF 393 renal
[4] = test system: M14 melanoma
[5] = test system: ACHN renal
[6] = test system: A549 NSCLC
[7] = test system: A498 renal
[8] = test system: MOLT-4 leukemia
[9] = test system: TK-10 renal
[10] = test system: SF-268 CNS
[11] = test system: HCT-15 colon
[12] = test system: SK-MEL-2 melanoma
[13] = test system: BT-549 breast
[14] = test system: EKVX NSCLC
[15] = test system: HCT-116 colon
[16] = test system: MCF7 breast
[17] = test system: KM12 colon
[18] = test system: HOP-62 NSCLC
[19] = test system: SF-295 CNS
[20] = test system: U251 CNS
[21] = test system: HOP-92 NSCLC
[22] = test system: HL-60(TB) leukemia
[23] = test system: SF-539 CNS
[24] = test system: NCI-H226 lung
[25] = test system: SR leukemia
[26] = test system: MALME-3M melanoma
[27] = test system: OVCAR-5 ovarian
[28] = test system: SK-OV-3 ovarian
[29] = test system: COLO 205 colon
[30] = test system: UACC-257 melanoma
[31] = test system: DU-145 prostate
[32] = test system: SW-620 colon
[33] = test system: OVCAR-3 ovarian
[34] = test system: HT29 colon
[35] = test system: SNB-75 CNS
[36] = test system: UACC-62 melanoma
[37] = test system: HCC-2998 colon
[38] = test system: HS 578T breast
[39] = test system: T-47D breast
[40] = test system: IGROV1 ovarian
[41] = test system: SN12C renal
[42] = test system: LOX IMVI melanoma
[43] = test system: OVCAR-4 ovarian
[44] = test system: 786-0 renal
[45] = test system: SK-MEL-28 melanoma
[46] = test system: PC-3 prostate
[47] = test system: MDA-MB-231 breast
[48] = test system: SNB-19 CNS
[49] = test system: OVCAR-8 ovarian
[50] = test system: NCI-H522 lung
[51] = test system: RPMI-8226 leukemia
[52] = test system: SK-MEL-5 melanoma
[53] = test system: UO-31 renal
[54] = test system: CAKI-1 renal
[55] = test system: NCI-H460 lung
[56] = test system: CCRF-CEM leukemia
[57] = test system: K-562 leukemia

O=C(c1ccc(O)cc1)c1ccc(C(=O)c2ccc(O)cc2)cc1 was tested, and the GI50 [1] was 75.3 µM, the TGI [1] was over 100 µM and the GI50 [2] was over 100 µM. For the same molecule, the TGI [2] was over 100 µM, the GI50 [3] was 26.5 µM and the TGI [3] was 98.3 µM. The GI50 [4] was over 100 µM, the TGI [4] was over 100 µM and the GI50 [5] was over 100 µM. The TGI [5] was over 100 µM, the GI50 [6] was over 100 µM and the TGI [6] was over 100 µM. The GI50 [7] was over 100 µM, the TGI [7] was over 100 µM and the GI50 [8] was over 100 µM. The TGI [8] was over 100 µM, the GI50 [9] was over 100 µM and the TGI [9] was over 100 µM. The GI50 [10] was 26.6 µM, the TGI [10] was over 100 µM and the GI50 [11] was over 100 µM. The TGI [11] was over 100 µM, the GI50 [12] was over 100 µM and the TGI [12] was over 100 µM. For the same molecule, the GI50 [13] was 94 µM, the TGI [13] was over 100 µM and the GI50 [14] was 8.33 µM. It also gave a TGI [14] of over 100 µM, a GI50 [15] of over 100 µM and a TGI [15] of over 100 µM. It also gave a GI50 [16] of 75.1 µM, a TGI [16] of over 100 µM and a GI50 [17] of over 100 µM. It also gave a TGI [17] of over 100 µM, a GI50 [18] of 18 µM and a TGI [18] of 46.7 µM. The GI50 [19] was 6.06 µM, the TGI [19] was over 100 µM and the GI50 [20] was 16.9 µM. For the same molecule, the TGI [20] was over 100 µM, the GI50 [21] was 8.04 µM and the TGI [21] was over 100 µM. It also gave a GI50 [22] of over 100 µM, a TGI [22] of over 100 µM and a GI50 [23] of 80 µM. For the same molecule, the TGI [23] was over 100 µM, the GI50 [24] was 33.5 µM and the TGI [24] was over 100 µM. It also gave a GI50 [25] of over 100 µM, a TGI [25] of over 100 µM and a GI50 [26] of 35.7 µM. It also gave a TGI [26] of over 100 µM, a GI50 [27] of over 100 µM and a TGI [27] of over 100 µM. The GI50 [28] was 23.3 µM, the TGI [28] was over 100 µM and the GI50 [29] was over 100 µM. The TGI [29] was over 100 µM, the GI50 [30] was over 100 µM and the TGI [30] was over 100 µM. The GI50 [31] was over 100 µM, the TGI [31] was over 100 µM and the GI50 [32] was over 100 µM. It also gave a TGI [32] of over 100 µM, a GI50 [33] of over 100 µM and a TGI [33] of over 100 µM. It also gave a GI50 [34] of over 100 µM, a TGI [34] of over 100 µM and a GI50 [35] of 22.5 µM. It also gave a TGI [35] of 56.2 µM, a GI50 [36] of over 100 µM and a TGI [36] of over 100 µM. The GI50 [37] was over 100 µM, the TGI [37] was over 100 µM and the GI50 [38] was 27.4 µM. For the same molecule, the TGI [38] was over 100 µM, the GI50 [39] was 4.69 µM and the TGI [39] was over 100 µM. The GI50 [40] was 6.32 µM, the TGI [40] was over 100 µM and the GI50 [41] was over 100 µM. The TGI [41] was over 100 µM, the GI50 [42] was over 100 µM and the TGI [42] was over 100 µM. For the same molecule, the GI50 [43] was over 100 µM, the TGI [43] was over 100 µM and the GI50 [44] was over 100 µM. It also gave a TGI [44] of over 100 µM, a GI50 [45] of over 100 µM and a TGI [45] of over 100 µM. For the same molecule, the GI50 [46] was over 100 µM, the TGI [46] was over 100 µM and the GI50 [47] was 46.9 µM. For the same molecule, the TGI [47] was over 100 µM, the GI50 [48] was 71.1 µM and the TGI [48] was over 100 µM. For the same molecule, the GI50 [49] was 20.8 µM, the TGI [49] was over 100 µM and the GI50 [50] was 8.05 µM. It also gave a TGI [50] of over 100 µM, a GI50 [51] of 5.21 µM and a TGI [51] of over 100 µM. For the same molecule, the GI50 [52] was over 100 µM and the TGI [52] was over 100 µM.
With O=S(=O)(NC(=S)Nc1ccccc1)c1ccc(N2N=C3c4ccccc4CC3C2c2ccc(Cl)cc2)cc1 (stereo not drawn) the GI50 [2] was 44.8 µM, the TGI [2] was over 100 µM and the GI50 [3] was 43.1 µM. It also gave a TGI [3] of over 100 µM, a GI50 [4] of 36.4 µM and a TGI [4] of over 100 µM. It also gave a GI50 [5] of 25.8 µM, a TGI [5] of 60.7 µM and a GI50 [6] of 20.9 µM. It also gave a TGI [6] of 51.7 µM, a GI50 [8] of 15.9 µM and a TGI [8] of 39.3 µM. The GI50 [9] was 30.2 µM, the TGI [9] was 99.4 µM and the GI50 [10] was 20.7 µM. For the same molecule, the TGI [10] was 51.1 µM, the GI50 [11] was 22.4 µM and the TGI [11] was 54.8 µM. For the same molecule, the GI50 [12] was 23.4 µM, the TGI [12] was 47.9 µM and the GI50 [13] was 33.2 µM. The TGI [13] was 78.3 µM, the GI50 [14] was 27.4 µM and the TGI [14] was 60.5 µM. It also gave a GI50 [15] of 21.6 µM, a TGI [15] of 55.2 µM and a GI50 [16] of 23.5 µM. It also gave a TGI [16] of 54.3 µM, a GI50 [53] of 19 µM and a TGI [53] of 38.1 µM. It also gave a GI50 [17] of 19.4 µM, a TGI [17] of 55.3 µM and a GI50 [18] of 41.3 µM. For the same molecule, the TGI [18] was over 100 µM, the GI50 [19] was 35.5 µM and the TGI [19] was over 100 µM. It also gave a GI50 [20] of 19.7 µM, a TGI [20] of 39.9 µM and a GI50 [54] of 26.1 µM. The TGI [54] was 91.4 µM, the GI50 [21] was 18.1 µM and the TGI [21] was 40.2 µM. It also gave a GI50 [22] of 21 µM, a TGI [22] of 46.2 µM and a GI50 [23] of 24.2 µM. For the same molecule, the TGI [23] was 45.7 µM, the GI50 [24] was 41.4 µM and the TGI [24] was over 100 µM. It also gave a GI50 [25] of 14.7 µM, a TGI [25] of 36.6 µM and a GI50 [28] of 40.7 µM. For the same molecule, the TGI [28] was over 100 µM, the GI50 [29] was 21.6 µM and the TGI [29] was 44.3 µM. For the same molecule, the GI50 [30] was 29.5 µM, the TGI [30] was 70.5 µM and the GI50 [31] was 24.9 µM. For the same molecule, the TGI [31] was 51.4 µM, the GI50 [32] was 29.7 µM and the TGI [32] was 75.7 µM. For the same molecule, the GI50 [33] was 46.3 µM, the TGI [33] was over 100 µM and the GI50 [34] was 41.6 µM. For the same molecule, the TGI [34] was over 100 µM, the GI50 [35] was 39.7 µM and the TGI [35] was over 100 µM. For the same molecule, the GI50 [36] was 18.3 µM, the TGI [36] was 38.8 µM and the GI50 [38] was 30 µM. The TGI [38] was 68.2 µM, the GI50 [39] was 36.3 µM and the TGI [39] was over 100 µM. The GI50 [40] was 20.2 µM, the TGI [40] was 49.3 µM and the GI50 [41] was 24.5 µM. The TGI [41] was 55.6 µM, the GI50 [42] was 19.5 µM and the TGI [42] was 39 µM. It also gave a GI50 [43] of 42.2 µM, a TGI [43] of over 100 µM and a GI50 [55] of 22.2 µM. For the same molecule, the TGI [55] was 60 µM, the GI50 [44] was 32.4 µM and the TGI [44] was over 100 µM. It also gave a GI50 [45] of 29.4 µM, a TGI [45] of 77 µM and a GI50 [46] of 13.8 µM. It also gave a TGI [46] of 28.1 µM, a GI50 [47] of 87.1 µM and a TGI [47] of over 100 µM. The GI50 [56] was 19.7 µM, the TGI [56] was 57.5 µM and the GI50 [48] was 21.8 µM. For the same molecule, the TGI [48] was 46.4 µM, the GI50 [49] was 26.8 µM and the TGI [49] was 71.1 µM. The GI50 [50] was 18.1 µM, the TGI [50] was 38.6 µM and the GI50 [57] was 16.4 µM. For the same molecule, the TGI [57] was 42.1 µM, the GI50 [51] was 19.6 µM and the TGI [51] was 66.7 µM. It also gave a GI50 [52] of 20.4 µM and a TGI [52] of 40.9 µM.
